compound: Cc1nc(NC(=O)N2CCC[C@H]2C(N)=O)sc1-c1ccnc(C(C)(C)C(F)(F)F)c1 [Alpelisib] + CC(C)C[C@H](NC(=O)[C@H](Cc1ccccc1)NC(=O)c1cnccn1)B(O)O [Bortezomib] (partner 0.002 µM); assay: relative viability (nuclei count vs DMSO), 5 days (fraction); higher = more cells survive; conditions: first compound 0.04 µM
Procedure, shortened: (§1)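 After 5 days of treatment, lung cancer cells in 1536-well plates were fixed and stained in a single step (final 0.05% Triton X-100, 1% formaldehyde, 1 ug/ml Hoechst) and their nuclei counted on 4× images. Treatment had been applied by pin tool the day after seeding as one drug alone or as a fixed anchor-drug dose with five library-drug doses (not always all listed) in √10 steps. Relative viability is the nuclei count of treated wells divided by that of vehicle wells, and values are medians of duplicate plates.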

Cell Line	relative viability
EKVX	1.09
NCI-H2087	0.651
NCI-H1734	0.896
LCLC-103H	0.819
LU99A	1.07
NCI-H460	1
SK-LU-1	1.36
COR-L23	0.945
HCC-15	1.03
NCI-H1563	0.807
EMC-BAC-2	1.02
LC-2-ad	1.05
NCI-H2085	0.982
NCI-H727	0.806
NCI-H647	0.75
HARA	0.976
NCI-H3122	0.992

Cell Line	relative viability
CAL-12T	1.08
COR-L 105	0.92
LCLC-97TM1	0.682
NCI-H520	0.59
NCI-H2228	0.933
NCI-H23	0.941
HCC-827	1.1
NCI-H2347	0.784
LXF-289	1
NCI-H1666	0.837
RERF-LC-KJ	1.1
NCI-H650	0.728
NCI-H322M	1.23
NCI-H596	1.17
201T	1.1
NCI-H441	0.631
HCC-78	0.427

same assay, conditions: first compound 0.1265 µM

Cell Line	relative viability
EKVX	1.05
NCI-H2087	0.78
NCI-H1734	0.814
LCLC-103H	0.964
LU99A	1.12
NCI-H460	0.939
SK-LU-1	0.723
COR-L23	0.976
HCC-15	0.948
NCI-H1563	0.85
EMC-BAC-2	1.01
LC-2-ad	1.01
NCI-H2085	1.08
NCI-H727	0.693
NCI-H647	1.1
HARA	1.09

Cell Line	relative viability
NCI-H3122	1.08
COR-L 105	0.86
NCI-H520	0.687
NCI-H2228	0.807
NCI-H23	0.941
HCC-827	0.904
NCI-H2347	0.849
LXF-289	1.03
NCI-H1666	0.695
RERF-LC-KJ	1.08
NCI-H650	0.563
NCI-H322M	1.06
NCI-H596	0.801
201T	1.08
NCI-H441	0.45
HCC-78	0.474

same assay, conditions: first compound 0.4 µM

Cell Line	relative viability
EKVX	1.05
NCI-H2087	0.893
NCI-H1734	0.943
LCLC-103H	1.03
LU99A	1.14
NCI-H460	1.13
SK-LU-1	1.01
COR-L23	1.13
HCC-15	1.04
NCI-H1563	0.816
EMC-BAC-2	1.22
LC-2-ad	1.09
NCI-H2085	0.816
NCI-H727	0.988
NCI-H647	1.34
HARA	1.34
NCI-H3122	0.984

Cell Line	relative viability
CAL-12T	0.952
COR-L 105	1.33
LCLC-97TM1	0.86
NCI-H520	0.553
NCI-H2228	0.922
NCI-H23	0.773
HCC-827	1.28
NCI-H2347	1.12
LXF-289	1.07
NCI-H1666	0.882
RERF-LC-KJ	1.32
NCI-H650	0.881
NCI-H322M	1.1
NCI-H596	1.15
201T	1.18
NCI-H441	0.531
HCC-78	0.686

same assay, conditions: first compound 1.265 µM

Cell Line	relative viability
EKVX	0.953
NCI-H2087	0.685
NCI-H1734	0.623
LCLC-103H	1.05
LU99A	0.874
NCI-H460	0.646
SK-LU-1	0.805
COR-L23	0.798
HCC-15	0.898
NCI-H1563	0.687
EMC-BAC-2	0.929
LC-2-ad	0.955
NCI-H2085	0.927
NCI-H727	0.759
NCI-H647	0.944
HARA	1.01
NCI-H3122	1.12

Cell Line	relative viability
COR-L 105	0.735
LCLC-97TM1	0.384
NCI-H520	0.623
NCI-H2228	0.696
NCI-H23	0.559
HCC-827	1.02
NCI-H2347	1.08
LXF-289	0.902
NCI-H1666	0.591
RERF-LC-KJ	1.01
NCI-H650	0.573
NCI-H322M	1.1
NCI-H596	0.666
201T	1.08
NCI-H441	0.329
HCC-78	0.337

same assay, conditions: first compound 4 µM

Cell Line	relative viability
EKVX	1.02
NCI-H2087	0.47
NCI-H1734	0.518
LCLC-103H	0.831
LU99A	0.614
NCI-H460	0.366
SK-LU-1	0.934
COR-L23	0.802
HCC-15	0.858
NCI-H1563	0.803
EMC-BAC-2	0.741
LC-2-ad	0.844
NCI-H2085	0.842
NCI-H727	0.465
NCI-H647	0.922
HARA	0.766
NCI-H3122	0.999

Cell Line	relative viability
CAL-12T	0.718
COR-L 105	0.782
LCLC-97TM1	0.237
NCI-H520	0.319
NCI-H2228	0.537
NCI-H23	0.766
HCC-827	0.942
NCI-H2347	0.876
LXF-289	1.04
NCI-H1666	0.423
RERF-LC-KJ	0.934
NCI-H650	0.58
NCI-H322M	0.857
NCI-H596	0.44
201T	1.09
NCI-H441	0.385
HCC-78	0.366

compound: COc1cccc2cc(-c3nc([C@H]4CC[C@H](C(=O)O)CC4)n4ncnc(N)c34)[nH]c12 [OSI-027] + CC(C)C[C@H](NC(=O)[C@H](Cc1ccccc1)NC(=O)c1cnccn1)B(O)O [Bortezomib] (partner 0.002 µM); assay: as above; conditions: first compound 0.01 µM
Procedure, shortened: as §1

Cell Line	relative viability
EKVX	1.03
NCI-H2087	0.82
NCI-H1734	0.958
LCLC-103H	1.24
LU99A	1.11
NCI-H460	1.41
SK-LU-1	1.01
COR-L23	1.16
HCC-15	1.07
NCI-H1563	0.822
EMC-BAC-2	1.07
LC-2-ad	1.03
NCI-H2085	1.11
NCI-H727	0.915
NCI-H647	0.992
HARA	1.12
NCI-H3122	1.11

Cell Line	relative viability
CAL-12T	0.814
COR-L 105	0.682
LCLC-97TM1	0.271
NCI-H520	0.62
NCI-H2228	0.977
NCI-H23	0.967
HCC-827	0.973
NCI-H2347	0.857
LXF-289	1.03
NCI-H1666	0.707
RERF-LC-KJ	1.18
NCI-H650	0.738
NCI-H322M	1.23
NCI-H596	0.869
201T	1.14
NCI-H441	0.605
HCC-78	0.611

same assay, conditions: first compound 0.03162 µM

Cell Line	relative viability
EKVX	0.942
NCI-H2087	0.879
NCI-H1734	0.809
LCLC-103H	1.16
LU99A	0.967
NCI-H460	1.14
SK-LU-1	1.26
COR-L23	0.923
HCC-15	0.988
NCI-H1563	0.872
EMC-BAC-2	1.08
LC-2-ad	0.984
NCI-H2085	0.965
NCI-H727	0.9
NCI-H647	0.981
HARA	1.1
NCI-H3122	1.04

Cell Line	relative viability
CAL-12T	1.02
COR-L 105	0.716
LCLC-97TM1	0.554
NCI-H520	0.394
NCI-H2228	1.01
NCI-H23	0.834
HCC-827	1.07
NCI-H2347	0.904
LXF-289	1.05
NCI-H1666	0.9
RERF-LC-KJ	0.948
NCI-H650	1.05
NCI-H322M	1.24
NCI-H596	1.02
201T	1.15
NCI-H441	0.254
HCC-78	0.428

same assay, conditions: first compound 0.1 µM

Cell Line	relative viability
EKVX	1.11
NCI-H2087	0.938
NCI-H1734	0.852
LCLC-103H	1.13
LU99A	0.981
NCI-H460	0.862
SK-LU-1	0.75
COR-L23	1.07
HCC-15	1
NCI-H1563	0.781
EMC-BAC-2	0.988
LC-2-ad	1.05
NCI-H2085	0.95
NCI-H727	0.896
NCI-H647	1
HARA	1.15
NCI-H3122	1.11

Cell Line	relative viability
CAL-12T	0.713
COR-L 105	0.779
LCLC-97TM1	0.369
NCI-H520	0.459
NCI-H2228	0.999
NCI-H23	0.944
HCC-827	1.06
NCI-H2347	0.741
LXF-289	1.05
NCI-H1666	0.688
RERF-LC-KJ	1.03
NCI-H650	0.431
NCI-H322M	1.13
NCI-H596	0.884
201T	1.07
NCI-H441	0.476
HCC-78	0.454

same assay, conditions: first compound 0.3162 µM

Cell Line	relative viability
EKVX	0.972
NCI-H2087	0.859
NCI-H1734	0.834
LCLC-103H	0.928
LU99A	0.604
NCI-H460	0.94
SK-LU-1	0.655
COR-L23	1.13
HCC-15	1.01
NCI-H1563	0.741
EMC-BAC-2	0.872
LC-2-ad	1.09
NCI-H2085	0.977
NCI-H727	0.766
NCI-H647	0.884
HARA	0.979
NCI-H3122	1.02
CAL-12T	0.754
COR-L 105	0.572
LCLC-97TM1	0.154
NCI-H520	0.179
NCI-H23	1.02
HCC-827	1.12
NCI-H2347	0.601
